According to article PMC6409085, “Three odorant-binding proteins are involved in the behavioral response of Sogatella furcifera to rice plant volatiles” (PeerJ, 2019):
“And” between values parts separate entries of the source, which are not always exact repeats. Identical values can stand only once.

Assays:
[1] = target: SfurOBP11 (Sogatella furcifera, UniProt V5T6E3); test: biochemical; format: binding
Outline: (§1)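 K1-NPN came from titrating 2.0 µM protein (50 mM Tris-HCl, pH 7.4) with 1-NPN. Odorants at 2-20 µM then competed against 2.0 µM protein plus 2.0 µM 1-NPN for 2 min, with excitation at 337 nm and emission recorded over 390-490 nm. IC50 values were converted to Ki via Ki = IC50/(1 + [1-NPN]/K1-NPN).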

[2] = target: SfurOBP3 (Sogatella furcifera, UniProt V5T818); test: biochemical; format: binding; conditions: for Fluorescence competitive binding assay, fluorescence intensity: OBP3, three replicate columns
SfurOBP3, sequence (V5T818 entry or part of it): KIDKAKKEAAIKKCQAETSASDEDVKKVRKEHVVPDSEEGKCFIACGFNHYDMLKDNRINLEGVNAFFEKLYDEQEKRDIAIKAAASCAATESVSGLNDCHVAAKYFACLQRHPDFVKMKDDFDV
Outline: as §1

[3] = target: SfurOBP2 (Sogatella furcifera, UniProt V5T759); test: biochemical; format: binding
SfurOBP2, sequence (V5T759 entry or part of it): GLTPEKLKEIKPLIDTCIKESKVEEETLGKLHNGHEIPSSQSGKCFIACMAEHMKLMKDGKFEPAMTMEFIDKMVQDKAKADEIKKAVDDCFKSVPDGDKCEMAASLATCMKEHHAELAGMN
Outline: as §1

[4] = target: SfurOBP1 (Sogatella furcifera, UniProt V5T8N5); test: biochemical; format: binding; conditions: for Fluorescence competitive binding assay, fluorescence intensity: OBP1, three replicate columns
SfurOBP1, sequence (V5T8N5 entry or part of it): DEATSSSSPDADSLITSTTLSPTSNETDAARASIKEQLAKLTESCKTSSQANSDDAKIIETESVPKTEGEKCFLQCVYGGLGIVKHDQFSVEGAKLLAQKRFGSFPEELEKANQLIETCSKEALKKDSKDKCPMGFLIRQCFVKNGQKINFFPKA
Outline: as §1

[5] = system: S. furcifera adults; test: Y-tube olfactometer behavioral trials; format: in vivo, Sogatella furcifera; conditions: odorant 50 µL/L vs hexane
Outline: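 Single S. furcifera adults (2 days post-emergence, starved 0.5 h) chose between odorant (100 µL of 50 µL/L on filter paper) and hexane control in a glass Y-tube, charcoal-filtered humidified air 300 mL/min per arm, 25 ± 1 °C, 50% RH. Choice scored if insect passed half an arm and stayed >1 min within 10 min; 45 insects per compound, chi-squared test.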

SfurOBP11, sequence (V5T6E3 entry or part of it): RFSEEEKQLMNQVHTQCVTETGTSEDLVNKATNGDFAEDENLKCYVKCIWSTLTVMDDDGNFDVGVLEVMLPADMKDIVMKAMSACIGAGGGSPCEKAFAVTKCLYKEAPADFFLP

CCCCCCCC=O [octanal]
IC50 ([1]; SfurOBP11, protein and 1-NPN both 2.0 µM, competitor 2-20 µM, read-out: IC50): > 20 µM | Fluorescence intensity, fluorescence competitive binding assay, OBP11 ([1]; ligand concentration 2, replicate 1): 24279 | Fluorescence intensity, fluorescence competitive binding assay, OBP11 ([1]; ligand concentration 2, replicate 2): 24939 | Fluorescence intensity, fluorescence competitive binding assay, OBP11 ([1]; ligand concentration 2, replicate 3): 29122 | Fluorescence intensity, fluorescence competitive binding assay, OBP11 ([1]; ligand concentration 4, replicate 1): 25640 | Fluorescence intensity, fluorescence competitive binding assay, OBP11 ([1]; ligand concentration 4, replicate 2): 28958 | Fluorescence intensity, fluorescence competitive binding assay, OBP11 ([1]; ligand concentration 4, replicate 3): 26788 | Fluorescence intensity, fluorescence competitive binding assay, OBP11 ([1]; ligand concentration 6, replicate 1): 25301 | Fluorescence intensity, fluorescence competitive binding assay, OBP11 ([1]; ligand concentration 6, replicate 2): 29174 | Fluorescence intensity, fluorescence competitive binding assay, OBP11 ([1]; ligand concentration 6, replicate 3): 26969 | Fluorescence intensity, fluorescence competitive binding assay, OBP11 ([1]; ligand concentration 8, replicate 1): 29061 | Fluorescence intensity, fluorescence competitive binding assay, OBP11 ([1]; ligand concentration 8, replicate 2): 28222 | Fluorescence intensity, fluorescence competitive binding assay, OBP11 ([1]; ligand concentration 8, replicate 3): 29900 | Fluorescence intensity, fluorescence competitive binding assay, OBP11 ([1]; ligand concentration 10, replicate 1): 27603 | Fluorescence intensity, fluorescence competitive binding assay, OBP11 ([1]; ligand concentration 10, replicate 2): 27689 | Fluorescence intensity, fluorescence competitive binding assay, OBP11 ([1]; ligand concentration 10, replicate 3): 19569 | Fluorescence intensity, fluorescence competitive binding assay, OBP11 ([1]; ligand concentration 12, replicate 1): 25318 | Fluorescence intensity, fluorescence competitive binding assay, OBP11 ([1]; ligand concentration 12, replicate 2): 27390 | Fluorescence intensity, fluorescence competitive binding assay, OBP11 ([1]; ligand concentration 12, replicate 3): 28182 | Fluorescence intensity, fluorescence competitive binding assay, OBP11 ([1]; ligand concentration 14, replicate 1): 26354 | Fluorescence intensity, fluorescence competitive binding assay, OBP11 ([1]; ligand concentration 14, replicate 2): 26978 | Fluorescence intensity, fluorescence competitive binding assay, OBP11 ([1]; ligand concentration 14, replicate 3): 26309 | Fluorescence intensity, fluorescence competitive binding assay, OBP11 ([1]; ligand concentration 16, replicate 1): 23481 | Fluorescence intensity, fluorescence competitive binding assay, OBP11 ([1]; ligand concentration 16, replicate 2): 24311 | Fluorescence intensity, fluorescence competitive binding assay, OBP11 ([1]; ligand concentration 16, replicate 3): 22273 | Fluorescence intensity, fluorescence competitive binding assay, OBP11 ([1]; ligand concentration 18, replicate 1): 28836 | Fluorescence intensity, fluorescence competitive binding assay, OBP11 ([1]; ligand concentration 18, replicate 2): 32227 | Fluorescence intensity, fluorescence competitive binding assay, OBP11 ([1]; ligand concentration 18, replicate 3): 28560 | Fluorescence intensity, fluorescence competitive binding assay, OBP11 ([1]; ligand concentration 20, replicate 1): 27143 | Fluorescence intensity, fluorescence competitive binding assay, OBP11 ([1]; ligand concentration 20, replicate 2): 27661 | Fluorescence intensity, fluorescence competitive binding assay, OBP11 ([1]; ligand concentration 20, replicate 3): 26182 | Fluorescence competitive binding assay, fluorescence intensity ([2]; ligand concentration 2): 68575 and 67242 and 67984 | Fluorescence competitive binding assay, fluorescence intensity ([2]; ligand concentration 4): 64299 and 63882 and 65677 | Fluorescence competitive binding assay, fluorescence intensity ([2]; ligand concentration 6): 63214 and 64264 and 71883 | Fluorescence competitive binding assay, fluorescence intensity ([2]; ligand concentration 8): 56987 and 54777 and 62435 | Fluorescence competitive binding assay, fluorescence intensity ([2]; ligand concentration 10): 56513 and 56201 and 65155 | Fluorescence competitive binding assay, fluorescence intensity ([2]; ligand concentration 12): 55112 and 58995 and 53063 | Fluorescence competitive binding assay, fluorescence intensity ([2]; ligand concentration 14): 51702 and 52973 and 56636 | Fluorescence competitive binding assay, fluorescence intensity ([2]; ligand concentration 16): 47206 and 51931 and 50397 | Fluorescence competitive binding assay, fluorescence intensity ([2]; ligand concentration 18): 54350 and 59148 and 62323 | Fluorescence competitive binding assay, fluorescence intensity ([2]; ligand concentration 20): 48786 and 51913 and 45060 | IC50 ([2]; SfurOBP3, protein and 1-NPN both 2.0 µM, competitor 2-20 µM, read-out: IC50): > 20 µM | IC50 ([3]; SfurOBP2, protein and 1-NPN both 2.0 µM, competitor 2-20 µM, read-out: IC50): > 20 µM | Fluorescence competitive binding assay, OBP2 (raw fluorescence reading) ([3]; ligand concentration 2 (unit not given), replicate column 1 of 3): 19179 | Fluorescence competitive binding assay, OBP2 (raw fluorescence reading) ([3]; ligand concentration 2 (unit not given), replicate column 2 of 3): 16653 | Fluorescence competitive binding assay, OBP2 (raw fluorescence reading) ([3]; ligand concentration 2 (unit not given), replicate column 3 of 3): 19027 | Fluorescence competitive binding assay, OBP2 (raw fluorescence reading) ([3]; ligand concentration 4 (unit not given), replicate column 1 of 3): 18170 | Fluorescence competitive binding assay, OBP2 (raw fluorescence reading) ([3]; ligand concentration 4 (unit not given), replicate column 2 of 3): 19771 | Fluorescence competitive binding assay, OBP2 (raw fluorescence reading) ([3]; ligand concentration 4 (unit not given), replicate column 3 of 3): 20766 | Fluorescence competitive binding assay, OBP2 (raw fluorescence reading) ([3]; ligand concentration 6 (unit not given), replicate column 1 of 3): 19862 | Fluorescence competitive binding assay, OBP2 (raw fluorescence reading) ([3]; ligand concentration 6 (unit not given), replicate column 2 of 3): 19512 | Fluorescence competitive binding assay, OBP2 (raw fluorescence reading) ([3]; ligand concentration 6 (unit not given), replicate column 3 of 3): 20651 | Fluorescence competitive binding assay, OBP2 (raw fluorescence reading) ([3]; ligand concentration 8 (unit not given), replicate column 1 of 3): 15792 | Fluorescence competitive binding assay, OBP2 (raw fluorescence reading) ([3]; ligand concentration 8 (unit not given), replicate column 2 of 3): 18755 | Fluorescence competitive binding assay, OBP2 (raw fluorescence reading) ([3]; ligand concentration 8 (unit not given), replicate column 3 of 3): 20463 | Fluorescence competitive binding assay, OBP2 (raw fluorescence reading) ([3]; ligand concentration 10 (unit not given), replicate column 1 of 3): 17421 | Fluorescence competitive binding assay, OBP2 (raw fluorescence reading) ([3]; ligand concentration 10 (unit not given), replicate column 2 of 3): 18400 | Fluorescence competitive binding assay, OBP2 (raw fluorescence reading) ([3]; ligand concentration 10 (unit not given), replicate column 3 of 3): 18628 | Fluorescence competitive binding assay, OBP2 (raw fluorescence reading) ([3]; ligand concentration 12 (unit not given), replicate column 1 of 3): 16986 | Fluorescence competitive binding assay, OBP2 (raw fluorescence reading) ([3]; ligand concentration 12 (unit not given), replicate column 2 of 3): 26722 | Fluorescence competitive binding assay, OBP2 (raw fluorescence reading) ([3]; ligand concentration 12 (unit not given), replicate column 3 of 3): 18513 | Fluorescence competitive binding assay, OBP2 (raw fluorescence reading) ([3]; ligand concentration 14 (unit not given), replicate column 1 of 3): 17500 | Fluorescence competitive binding assay, OBP2 (raw fluorescence reading) ([3]; ligand concentration 14 (unit not given), replicate column 2 of 3): 18527 | Fluorescence competitive binding assay, OBP2 (raw fluorescence reading) ([3]; ligand concentration 14 (unit not given), replicate column 3 of 3): 15051 | Fluorescence competitive binding assay, OBP2 (raw fluorescence reading) ([3]; ligand concentration 16 (unit not given), replicate column 1 of 3): 15983 | Fluorescence competitive binding assay, OBP2 (raw fluorescence reading) ([3]; ligand concentration 16 (unit not given), replicate column 2 of 3): 17600 | Fluorescence competitive binding assay, OBP2 (raw fluorescence reading) ([3]; ligand concentration 16 (unit not given), replicate column 3 of 3): 16529 | Fluorescence competitive binding assay, OBP2 (raw fluorescence reading) ([3]; ligand concentration 18 (unit not given), replicate column 1 of 3): 18709 | Fluorescence competitive binding assay, OBP2 (raw fluorescence reading) ([3]; ligand concentration 18 (unit not given), replicate column 2 of 3): 20674 | Fluorescence competitive binding assay, OBP2 (raw fluorescence reading) ([3]; ligand concentration 18 (unit not given), replicate column 3 of 3): 18464 | Fluorescence competitive binding assay, OBP2 (raw fluorescence reading) ([3]; ligand concentration 20 (unit not given), replicate column 1 of 3): 19401 | Fluorescence competitive binding assay, OBP2 (raw fluorescence reading) ([3]; ligand concentration 20 (unit not given), replicate column 2 of 3): 17294 | Fluorescence competitive binding assay, OBP2 (raw fluorescence reading) ([3]; ligand concentration 20 (unit not given), replicate column 3 of 3): 16214 | Fluorescence competitive binding assay, fluorescence intensity ([4]; ligand concentration 2 (μM)): 7113 and 7279 and 7196 | Fluorescence competitive binding assay, fluorescence intensity ([4]; ligand concentration 4 (μM)): 8035 and 6567 and 6323 | Fluorescence competitive binding assay, fluorescence intensity ([4]; ligand concentration 6 (μM)): 7198 and 8786 and 7995 | Fluorescence competitive binding assay, fluorescence intensity ([4]; ligand concentration 8 (μM)): 8545 and 7731 and 8071 | Fluorescence competitive binding assay, fluorescence intensity ([4]; ligand concentration 10 (μM)): 6799 and 7181 and 8487 | Fluorescence competitive binding assay, fluorescence intensity ([4]; ligand concentration 12 (μM)): 7177 and 8788 and 7408 | Fluorescence competitive binding assay, fluorescence intensity ([4]; ligand concentration 14 (μM)): 8520 and 7543 and 7998 | Fluorescence competitive binding assay, fluorescence intensity ([4]; ligand concentration 16 (μM)): 7196 and 9418 and 8283 | Fluorescence competitive binding assay, fluorescence intensity ([4]; ligand concentration 18 (μM)): 10247 and 9192 and 8904 | Fluorescence competitive binding assay, fluorescence intensity ([4]; ligand concentration 20 (μM)): 10042 and 9521 and 8702 | IC50 ([4]; SfurOBP1, protein and 1-NPN both 2.0 µM, competitor 2-20 µM, read-out: IC50): > 20 µM | behavioral response of S. furcifera (in words) [5]: significantly repelled | number of insects choosing hexane arm ([5]; adults): 15 | number of insects choosing volatilies arm ([5]; adults): 8 | number of insects failed (no choice) ([5]; adults): 17
